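Dose response: 5 concentrations. Exposure: 48 h. Format: 96-well plates. Endpoint: linear interpolation; highest concentration if not reached. GI50 marks 50% less growth. TGI marks complete inhibition of growth.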
What was measured:
Assay in all cases: DTP human tumour cell line panel, 48 h
[1] = test system: SF-268 CNS
[2] = test system: SN12C renal
[3] = test system: NCI-H226 lung
[4] = test system: SK-MEL-5 melanoma
[5] = test system: RPMI-8226 leukemia
[6] = test system: T-47D breast
[7] = test system: HOP-92 NSCLC
[8] = test system: COLO 205 colon
[9] = test system: CAKI-1 renal
[10] = test system: SNB-19 CNS
[11] = test system: BT-549 breast
[12] = test system: HS 578T breast
[13] = test system: LOX IMVI melanoma
[14] = test system: OVCAR-4 ovarian
[15] = test system: IGROV1 ovarian
[16] = test system: ACHN renal
[17] = test system: HCT-116 colon
[18] = test system: KM12 colon
[19] = test system: RXF 393 renal
[20] = test system: UACC-257 melanoma
[21] = test system: A498 renal
[22] = test system: NCI-H522 lung
[23] = test system: SK-MEL-2 melanoma
[24] = test system: TK-10 renal
[25] = test system: NCI-H23 lung
[26] = test system: HL-60(TB) leukemia
[27] = test system: UO-31 renal
[28] = test system: PC-3 prostate
[29] = test system: MDA-MB-231 breast
[30] = test system: MOLT-4 leukemia
[31] = test system: 786-0 renal
[32] = test system: DU-145 prostate
[33] = test system: U251 CNS
[34] = test system: SF-295 CNS
[35] = test system: OVCAR-5 ovarian
[36] = test system: MDA-MB-435
[37] = test system: NCI/ADR-RES ovarian
[38] = test system: SW-620 colon
[39] = test system: NCI-H460 lung
[40] = test system: UACC-62 melanoma
[41] = test system: SK-OV-3 ovarian
[42] = test system: HOP-62 NSCLC
[43] = test system: EKVX NSCLC
[44] = test system: M14 melanoma
[45] = test system: SK-MEL-28 melanoma
[46] = test system: OVCAR-8 ovarian
[47] = test system: A549 NSCLC
[48] = test system: OVCAR-3 ovarian
[49] = test system: SF-539 CNS
[50] = test system: HT29 colon
[51] = test system: CCRF-CEM leukemia
[52] = test system: MCF7 breast
[53] = test system: MALME-3M melanoma
[54] = test system: HCT-15 colon
[55] = test system: SNB-75 CNS
[56] = test system: HCC-2998 colon
[57] = test system: K-562 leukemia

## COc1cc2c(/C=C3/C(=O)Nc4ccccc43)c(Cl)n(Cc3ccccc3[N+](=O)[O-])c2cc1C
[1]
  GI50: 24 µM
  TGI: > 100 µM
[2]
  GI50: 9.42 µM
  TGI: 56.1 µM
[3]
  GI50: 12.7 µM
  TGI: 38.4 µM
[4]
  GI50: 5.02 µM
  TGI: 19.6 µM
[5]
  GI50: 3.49 µM
  TGI: > 100 µM
[6]
  GI50: 4.11 µM
  TGI: 21.8 µM
[7]
  GI50: 7.25 µM
  TGI: 26.8 µM
[8]
  GI50: 3.18 µM
  TGI: 15.5 µM
[9]
  GI50: 6.39 µM
  TGI: 23.3 µM
[10]
  GI50: 11.1 µM
  TGI: 30.8 µM
[11]
  GI50: 9.16 µM
  TGI: 27.8 µM
[12]
  GI50: 15 µM
  TGI: 94 µM
[13]
  GI50: 9.17 µM
  TGI: 24 µM
[14]
  GI50: 4.18 µM
  TGI: 22.2 µM
[15]
  GI50: 7.46 µM
  TGI: > 100 µM
[16]
  GI50: 4.95 µM
  TGI: 19.6 µM
[17]
  GI50: 2.71 µM
  TGI: 18.6 µM
[18]
  GI50: 4.9 µM
  TGI: 21.3 µM
[19]
  GI50: 18.9 µM
  TGI: 96.2 µM
[20]
  GI50: 17.7 µM
  TGI: 85.5 µM
[21]
  GI50: 12.4 µM
  TGI: 32.6 µM
[22]
  GI50: 12.2 µM
  TGI: 35.3 µM
[23]
  GI50: 12.9 µM
  TGI: 40.5 µM
[24]
  GI50: 12.4 µM
  TGI: 34.1 µM
[25]
  GI50: 7.77 µM
  TGI: 22.3 µM
[26]
  GI50: 4.78 µM
  TGI: > 100 µM
[27]
  GI50: 6.29 µM
  TGI: 25.1 µM
[28]
  GI50: 5.08 µM
  TGI: 25.6 µM
[29]
  GI50: 3.85 µM
  TGI: 31.3 µM
[30]
  GI50: 5.51 µM
  TGI: 70.3 µM
[31]
  GI50: 6.31 µM
  TGI: 22.5 µM
[32]
  GI50: 6.74 µM
  TGI: > 100 µM
[33]
  GI50: 11.2 µM
  TGI: 25.1 µM
[34]
  GI50: 6.9 µM
  TGI: 22.8 µM
[35]
  GI50: 15.6 µM
  TGI: 35.4 µM
[36]
  GI50: 3.39 µM
  TGI: 15.6 µM
[37]
  GI50: 4.71 µM
  TGI: 20.3 µM
[38]
  GI50: 7.91 µM
  TGI: 34.5 µM
[39]
  GI50: 5.51 µM
  TGI: > 100 µM
[40]
  GI50: 6.69 µM
  TGI: 27 µM
[41]
  GI50: 14.8 µM
  TGI: 32.5 µM
[42]
  GI50: 10.7 µM
  TGI: 27.6 µM
[43]
  GI50: 5.66 µM
  TGI: 29.5 µM
[44]
  GI50: 6.35 µM
  TGI: 30.2 µM
[45]
  GI50: 3.47 µM
  TGI: 12.4 µM
[46]
  GI50: 26.1 µM
  TGI: > 100 µM
[47]
  GI50: 7.8 µM
  TGI: > 100 µM
[48]
  GI50: 3.02 µM
  TGI: 15 µM
[49]
  GI50: 14.3 µM
  TGI: 40.4 µM
[50]
  GI50: 1.93 µM
  TGI: 24.4 µM
[51]
  GI50: 5.62 µM
  TGI: > 100 µM
[52]
  GI50: 5.46 µM
  TGI: > 100 µM
[53]
  GI50: 3.41 µM
  TGI: 13.8 µM
[54]
  GI50: 6.6 µM
  TGI: 26.7 µM

## N=C(N)CCCCCCCCC(=N)N
[1]
  GI50: 42.6 µM
  TGI: > 100 µM
[2]
  GI50: 25.7 µM
  TGI: > 100 µM
[3]
  GI50: 15.7 µM
  TGI: > 100 µM
[4]
  GI50: 38.2 µM
  TGI: > 100 µM
[5]
  GI50: 31.1 µM
  TGI: > 100 µM
[6]
  GI50: 25 µM
  TGI: > 100 µM
[7]
  GI50: 19.1 µM
  TGI: > 100 µM
[8]
  GI50: 7.86 µM
  TGI: 20.9 µM
[9]
  GI50: 7.37 µM
  TGI: > 100 µM
[10]
  GI50: 22.5 µM
  TGI: > 100 µM
[11]
  GI50: 27.2 µM
  TGI: > 100 µM
[12]
  GI50: 29.2 µM
  TGI: > 100 µM
[13]
  GI50: 31.8 µM
  TGI: > 100 µM
[14]
  GI50: 44.4 µM
  TGI: > 100 µM
[15]
  GI50: 52.9 µM
  TGI: > 100 µM
[16]
  GI50: > 100 µM
  TGI: > 100 µM
[55]
  GI50: 29.1 µM
  TGI: > 100 µM
[17]
  GI50: 22.8 µM
  TGI: > 100 µM
[18]
  GI50: 21.1 µM
  TGI: > 100 µM
[19]
  GI50: > 100 µM
  TGI: > 100 µM
[20]
  GI50: > 100 µM
  TGI: > 100 µM
[56]
  GI50: 28.5 µM
  TGI: > 100 µM
[21]
  GI50: 11.6 µM
  TGI: 68.5 µM
[22]
  GI50: 41.4 µM
  TGI: > 100 µM
[23]
  GI50: > 100 µM
  TGI: > 100 µM
[24]
  GI50: 32.2 µM
  TGI: > 100 µM
[25]
  GI50: 5.11 µM
  TGI: 70.4 µM
[26]
  GI50: 29.5 µM
  TGI: > 100 µM
[27]
  GI50: 18.2 µM
  TGI: > 100 µM
[28]
  GI50: 37 µM
  TGI: > 100 µM
[29]
  GI50: 63.3 µM
  TGI: > 100 µM
[30]
  GI50: 46.4 µM
  TGI: > 100 µM
[31]
  GI50: > 100 µM
  TGI: > 100 µM
[32]
  GI50: 20.8 µM
  TGI: > 100 µM
[33]
  GI50: 8.08 µM
  TGI: > 100 µM
[57]
  GI50: 19.7 µM
  TGI: > 100 µM
[34]
  GI50: 23.5 µM
  TGI: 81.3 µM
[35]
  GI50: 26.4 µM
  TGI: > 100 µM
[36]
  GI50: > 100 µM
  TGI: > 100 µM
[37]
  GI50: 14.8 µM
  TGI: > 100 µM
[38]
  GI50: 32.5 µM
  TGI: > 100 µM
[39]
  GI50: 18.8 µM
  TGI: > 100 µM
[40]
  GI50: 64.8 µM
  TGI: > 100 µM
[41]
  GI50: 22.1 µM
  TGI: > 100 µM
[42]
  GI50: 30.9 µM
  TGI: > 100 µM
[43]
  GI50: 9.51 µM
  TGI: > 100 µM
[44]
  GI50: 56.7 µM
  TGI: > 100 µM
[45]
  GI50: 58.1 µM
  TGI: > 100 µM
[46]
  GI50: 10.9 µM
  TGI: > 100 µM
[47]
  GI50: 6.6 µM
  TGI: > 100 µM
[48]
  GI50: 34.1 µM
  TGI: > 100 µM
[49]
  GI50: 35.4 µM
  TGI: > 100 µM
[50]
  GI50: 26.3 µM
  TGI: > 100 µM
[51]
  GI50: 44.6 µM
  TGI: > 100 µM
[52]
  GI50: 25.7 µM
  TGI: > 100 µM
[53]
  GI50: 39.9 µM
  TGI: > 100 µM
[54]
  GI50: 47.2 µM
  TGI: > 100 µM
